According to patent US6552001B1, “Method breeding and feeds” (Takara Shuzo Co., Ltd., priority 1998, dated 2003):

Columns and labels:
Type in all cases: in vivo
[1] = single oral administration to a mouse, death; conditions: single dosage of 100 mg/kg
[2] = system: white-mouth disease; test: feed for tiger globefishes with white-mouth disease (Example 4); conditions: fishes without infection similarly treated
Experimental: A feed containing the heat treatment product of alginic acid to be given a day to 2000 tiger globefishes (average body weight: 450 g) suffered from white-mouth disease during culturing in sea was prepared upon use as follows. 1.11 kg of the heat treatment product of alginic acid as described in Referential Example 1-(1) was dissolved in water to a volume of 1.5 l. 10 kg of dry pellet feed (Otohime for globefish: Nisshin Flour Milling) was soaked with the solution. The entire feed was given to the fishes once a day such that 20 mg/kg body weight/day of cyclopentenone was given (group administered with the feed containing the heat treatment product of alginic acid).
As a control, 10 kg of the dry pellet feed (otohime for globefish: Nisshin Flour Milling) was given to 2000 tiger globefishes with white-mouth disease (average body weight: 450 g) once a day (control group)

[3] = system: gliding bacteria disease; test: young bastard halibuts with gliding bacteria disease, soaking or feed (Example 3); conditions: fishes without infection similarly treated
Experimental: Young bastard halibuts with gliding bacteria disease (body weight: about 4 g) cultured on land were divided into four groups. Effect of the heat treatment product of alginic acid as described in Referential Example 1-(1) on gliding bacteria disease was examined.
Control group: 2400 young bastard halibuts were fed with commercially available dry pellets (Otohime No. 4: Nisshin Flour Milling) once a day. They were bred in a 25000-l seawater tank.
Soaked group: A water tank for soaking was prepared by adding 880 g of the heat treatment product of alginic acid to 400 l of seawater and starting oxygen supply. 2375 young bastard halibuts were distributed in baskets such that several hundreds of the fishes were contained in a basket. They were soaked in the water tank for soaking for 30 minutes. After soaking, they were bred in a 25000-l seawater tank being fed with commercially available dry pellets once a day.
Group administered with the heat treatment product of alginic acid (1): 2380 young bastard halibuts were bred in a 25000-l seawater tank being fed once a day with a feed prepared by adding 500 g of the heat treatment product of alginic acid to 78 kg of a moist feed as shown in Table 3 below. […]

[4] = system: lymphocystis disease; test: feed for bastard halibuts with lymphocystis disease cultured in sea (Example 2); conditions: fishes without infection similarly treated
Experimental: A feed for young bastard halibuts (average body weight: 350 g) suffered from lymphocystis disease during culturing in sea was prepared by adding 3 kg of the heat treatment product of alginic acid as described in Referential Example 1-(1) to 136 kg of the moist feed as shown in Table 2 below. The feed was given to the fishes once in two days such that the heat treatment product of alginic acid was given at 1.2 g/kg/feeding.

[5] = system: lymphocystis disease; test: soaking plus feed for bastard halibuts with lymphocystis disease cultured on land (Example 1); conditions: fishes without lymphocystis disease (preventive)
Experimental: Then, the water was replaced with seawater. A feed for diseased bastard halibuts was prepared by adding 7 kg of the heat treatment product of alginic acid to 134 kg of the moist feed as shown in Table 1 below. The feed was given to the soaked bastard halibuts twice a day such that the heat treatment product of alginic acid was given at 0.78 g/kg/day.

O=C1C=CC(O)C1O (centres unmarked) [cyclopentenone, 4,5-dihydroxy-2-cyclopenten-1-one]
death [1]: No death
occurrence of infection [2]: no occurrence of infection
occurrence of infection [3]: no occurrence of infection
occurrence of infection [4]: no occurrence of infection
occurrence of lymphocystis disease [5]: no occurrence
